Test results from US7033595B1, “Pseudotyped retroviruses and stable cell lines for their production” (priority 1998, dated 2006).

What was measured:
Format in all cases: cell-based
[1] = test system: VSV-G pseudotyped retrovirus
[2] = test system: Ross-River E2-E1 pseudotyped retrovirus
wild type MMLV = test system: wild type MMLV

Compound: Cl.N [ammonium chloride]
- inhibition of VSV-G pseudotyped retrovirus entry [1]: inhibit
- inhibition of transduction by Ross River glycoprotein-pseudotyped viruses [2]: dramatic inhibition

Compound: CCN(CC)CCCC(C)Nc1ccnc2cc(Cl)ccc12 (centres unmarked) [chloroquine]
- inhibition of VSV-G pseudotyped retrovirus entry [1]: inhibit
- inhibition of transduction by Ross River glycoprotein-pseudotyped viruses [2]: dramatic inhibition
- effect on wild type MMLV entry (wild type MMLV): only partially affects
